Experimental data taken from publication doi:10.1101/2020.05.04.072892v1 (bioRxiv, 2020).

System: GBM6 cells
Test: Nanoparticle internalization by flow cytometry, GBM6 cells
Assay type: cell-based, Human
Conditions: for cell internalization of free dye: average bulk FL of FAM with flow cytometry, over time

Compound | cell internalization of free dye | cell internalization of free dye (listed as free FAM) | time of maximum DOX fluorescence in cells (average bulk FL of DOX by FCT) [h]
5,6-carboxyfluorescein [FAM] | cannot enter cells | no cell | –
COc1cccc2c1C(=O)c1c(O)c3c(c(O)c1C2=O)C[C@@](O)(C(=O)CO)C[C@@H]3O[C@H]1C[C@H](N)[C@H](O)[C@H](C)O1 [free DOX, doxorubicin] | – | – | 24
